Patent publication US10111936B2, “Metal-glycoprotein complexes and photodynamic therapy of immune privileged sites with same” (Theralase Technologies, Inc., priority 2015, dated 2018)

Columns and labels:
[1] = cited from earlier work
[2] = Absorbance / optical density with transferrin or OPTIFERRIN; assay type: physicochemical; settings: novel absorption in the red (600 nm) and near infrared (800 nm)
Method: Transferrin (0.2 mg/mL) was incubated with different photosensitizers (10 uM) and the absorbance spectra were obtained. […] Note that a large relative increase in absorbance may be accompanied by a small absolute difference and vice versa.
The optical density of TLD1433 was measured before and after the addition of either OPTIFERRIN (available from InVitria, a division of Ventria Bioscience) or human apo-transferrin (Sigma). […] This finding highlights the potential of using OPTIFERRIN to increase the efficacy of Theralase's TLD1433 photosensitizer. The increase in optical density will translate to a higher production of reactive oxygen species during PDT treatment. The absorption in red and near infrared light will allow for novel treatment applications for different tumors.

[3] = system: RG2 cells (rat glioblastoma tumor model); assay: In vivo PDT in rat glioblastoma; settings: ALA mediated PDT in RG2 tumor model; comparison
Method: A four-month old rat was injected in the cerebral cortex with 5000 RG2 cells (rat glioblastoma tumor model). Eleven days later, the rat was injected with TLD1433 (5 mg/kg) with human apo-transferrin.
PDT was administered 24 hours later. Light source and fluence: 808 nm wavelength, 300 J/cm^2 delivered at 100 mW. The number of photons absorbed was 2.8×10^17 photons/cm^3.
A five-month old rat was injected in the cerebral cortex with 5000 RG2 cells. Eleven days later, the rat was injected with TLD1433 (5 mg/kg) with human apo-transferrin. PDT was administered 24 hours later. Light source and fluence: 808 nm wavelength, 600 J/cm^2 delivered at 200 mW. The number of photons absorbed was 4.41×10^18 photons/cm^3.

Cn1nnc2c(C(N)=O)ncn2c1=O [temozolomide]
half-life [1]: approximately 1.8 hours

TLD1433-OPTIFERRIN complex: complex of TLD1433 with OPTIFERRIN, a recombinant human transferrin
optical density after addition of OPTIFERRIN [2]: substantial increase in optical density

NCC(=O)CCC(=O)O [aminolevulinic acid]
post PDT survival [3]: 8 days
